In US20100175140A1, “Leucine-rich repeat kinase (LRRK2) drosophila model for parkinson's disease: wildtype1 (WT1) and G2019S mutant flies” (The Johns Hopkins University, priority 2008, published 2010):

System: ddc-GAL4;G2019S-2 flies
Assay: Climbing assay (negative geotaxis) of LRRK2-G2019S transgenic flies treated with L-DOPA
Assay type: in vivo, Drosophila melanogaster
Details: 5 weeks of age, 1 mM L-DOPA for 10 days, P<0.05 vs untreated (FIG. 2E)
Description: We determined locomotor ability using a climbing assay (negative geotaxis assay) as described previously (23). Cohorts of 60 flies from each genotype were subjected to the assay weekly from 1 week to the time of death. The tested flies were age-matched, randomly selected, anesthetized, and placed in a vertical plastic column (length, 25 cm; diameter, 1.5 cm). After a 30-min recovery from CO2 exposure, flies were gently tapped to the bottom of the column. We counted and calculated the percentage of flies that could climb to or above the median line of the cylinder in 10 seconds. Each week, the assay was repeated three times.

Question: For `N[C@@H](Cc1ccc(O)c(O)c1)C(=O)O` [L-DOPA], which “locomotor activity (climbing assay)” value is on record?
Answer: The value was “significantly improved”.
